Active and inactive are the calls of the source. The calls are words filed in the database; no cut-off is given here.
Columns and labels:
Format in all cases: functional
[1] = Antioxidant activity in serum deprived rat Glomerular mesangial cells assessed as EOH level by measuring EOH/DHE level in presence of 25 mM glucose at 0.5 uM after 48 hrs by DHE based HPLC analysis (reference value: 654.98 +/- 32.31 nmol/micromol)
[2] = Antioxidant activity in serum deprived rat Glomerular mesangial cells assessed as EOH level by measuring EOH/DHE level in presence of 25 mM glucose at 2.5 uM after 48 hrs by DHE based HPLC analysis (reference value: 654.98 +/- 32.31 nmol/micromol)
[3] = organism: Rattus norvegicus; experiment: Antioxidant activity in serum deprived rat Glomerular mesangial cells assessed as reduction in NADPH oxidase dependent super oxide generation in presence of 25 mM glucose at 1 uM after 48 hrs by Lucigenin-enhanced chemiluminescence method
[4] = Nephroprotective activity in serum deprived rat Glomerular mesangial cells assessed as fibronectin protein expression in presence of 25 mM glucose at 1 uM after 48 hrs by Western blot analysis (reference value: 270.11 +/- 19.17%)
[5] = Antioxidant activity in serum deprived rat Glomerular mesangial cells assessed as EOH level by measuring EOH/DHE level in presence of 25 mM glucose at 5 uM after 48 hrs by DHE based HPLC analysis (reference value: 654.98 +/- 32.31 nmol/micromol)
[6] = Nephroprotective activity in serum deprived rat Glomerular mesangial cells assessed as fibronectin protein expression in presence of 25 mM glucose at 2.5 uM after 48 hrs by Western blot analysis (reference value: 270.11 +/- 19.17%)
[7] = organism: Rattus norvegicus; experiment: Antiproliferative activity against serum deprived rat Glomerular mesangial cells assessed as reduction in 25 mM glucose-induced cell proliferation at 1 uM after 48 hrs by MTT assay
[8] = Antioxidant activity in serum deprived rat Glomerular mesangial cells assessed as EOH level by measuring EOH/DHE level in presence of 25 mM glucose at 1 uM after 48 hrs by DHE based HPLC analysis (reference value: 654.98 +/- 32.31 nmol/micromol)
[9] = organism: Rattus norvegicus; experiment: Antiproliferative activity against serum deprived rat Glomerular mesangial cells assessed as reduction in 25 mM glucose-induced cell proliferation at 0.5 uM after 48 hrs by MTT assay
[10] = Nephroprotective activity in serum deprived rat Glomerular mesangial cells assessed as fibronectin protein expression in presence of 25 mM glucose at 5 uM after 48 hrs by Western blot analysis (reference value: 270.11 +/- 19.17%)
[11] = organism: Rattus norvegicus; experiment: Antioxidant activity in serum deprived rat Glomerular mesangial cells assessed as reduction in NADPH oxidase dependent super oxide generation in presence of 25 mM glucose at 0.5 uM after 48 hrs by Lucigenin-enhanced chemiluminescence method
[12] = Nephroprotective activity in serum deprived rat Glomerular mesangial cells assessed as fibronectin protein expression in presence of 25 mM glucose at 0.5 uM after 48 hrs by Western blot analysis (reference value: 270.11 +/- 19.17%)

SMILES | Activity [1] [nmol/umol] | Activity [2] [nmol/umol] | Activity [3] | Activity [4] [%] | Activity [5] [nmol/umol] | Activity [6] [%] | Activity [7] | Activity [8] [nmol/umol] | Activity [9] | Activity [10] [%] | Activity [11] | Activity [12] [%]
Cc1cn(CCC(=O)NNc2nc(NNC(=O)CCn3cc(C)c(=O)[nH]c3=O)nc(NNC(=O)CCn3cc(C)c(=O)[nH]c3=O)n2)c(=O)[nH]c1=O | 404.34 | 200.36 | Active | 141.91 | 224.71 | 108.35 | Active | 305.77 | Active | 102.99 | Active | 182.76
Cc1cn(CCC(=O)NNc2nc(NNC(=O)CCn3ccc(=O)[nH]c3=O)nc(NNC(=O)CCn3ccc(=O)[nH]c3=O)n2)c(=O)[nH]c1=O | 454.37 | 231.15 | Active | 145.64 | 217.62 | 143.41 | Active | 306.28 | Active | 151.18 | Active | 178.33
Cc1cn(CCC(=O)NNc2nc(NNC(=O)CCn3ccc(=O)[nH]c3=O)nc(NNC(=O)CCn3cc(C)c(=O)[nH]c3=O)n2)c(=O)[nH]c1=O | 323.17 | 249.97 | Active | 135.87 | 240.46 | 127.09 | Active | 257.69 | Active | 121.34 | Active | 114.54
Cc1cn(CCC(=O)NNc2nc(Cl)nc(NNC(=O)CCn3cc(C)c(=O)[nH]c3=O)n2)c(=O)[nH]c1=O | 651.54 | 512.62 | – | 200.79 | 413.96 | 189.91 | – | 671.14 | – | 170.26 | – | 231.19
O=C(CCn1ccc(=O)[nH]c1=O)NNc1nc(Cl)nc(NNC(=O)CCn2ccc(=O)[nH]c2=O)n1 | 660.36 | 661.09 | – | 280.24 | 672.32 | 219.47 | – | 648.96 | – | 179.47 | – | 267.45
O=C(CCn1ccc(=O)[nH]c1=O)NNc1nc(NNC(=O)CCn2ccc(=O)[nH]c2=O)nc(NNC(=O)CCn2ccc(=O)[nH]c2=O)n1 | 359.07 | 198.48 | Active | 167.88 | 210.93 | 142.45 | Active | 274.37 | Active | 121.19 | Active | 191.33
Cc1cn(CCC(=O)NN)c(=O)nc1O | 701.09 | 683.28 | – | 272.26 | 710.14 | 251.59 | – | 658.92 | – | 239.46 | – | 289.17
NNC(=O)CCn1ccc(O)nc1=O | 666.94 | 654.48 | – | 265.72 | 618.26 | 241.91 | – | 671.47 | – | 227.83 | – | 268.71

Reference: ChEMBL document CHEMBL4387727, “Novel triazine-based pyrimidines suppress glomerular mesangial cells proliferation and matrix protein accumulation through a ROS-dependent mechanism in the diabetic milieu” (2019)
